Measured values: patent US20220233652A1, “Pharmaceutical Compositions Comprising Integration-Promoting Peptides” (priority 2018, published 2022)
Where two headings read alike, the source gives them in different places. No end group written: not given here.

How the values were obtained:
[1] = Preliminary solubility test of INS peptide salts in co-solvents and water; type: physicochemical; settings: for Solubility in PBS: physiological conditions; for solubility: read-out: Approximate Solubility
Description: Solubility of different INS peptide salts was measured in several co-solvents and in water.

[2] = Stability of formulations F4, F7 and F10 (HPLC); type: physicochemical; settings: F4, F7 and F10, ambient temperature and 4° C., 24 hours
Description: To investigate the stability of formulation F4, F7 and F10 they were stored at ambient temperature and at 4° C. Samples were taken out at time zero (initial) and after 24 hours and diluted 10 times with water prior to HPLC analysis. The results were compared to the standard peptide 0.5 mg/ml in water (STD).

[3] = Stability study of lyophilized formulation after reconstitution; type: physicochemical
Description: To obtain an isotonic solution having desired osmolality of about 300-330 mOsm/kg, the poloxamer percentage was reduced to 0.8% and the lactose percentage was reduced to 9.5%. The solution formulation F45 was prepared in a 40 ml clear glass vial according to Table 20. The pH was adjusted by NH4OH. […]
The physical and chemical stability of lyophilized powder obtained in Example 10 was investigated. The lyophilized powder was stored at −20° C. […] Formulations before filtration were used as a control (initial state) at each time point. […] At the time point: 0 h, 24 hours and 7 days appearance, pH and osmolarity were tested and the solutions were analyzed by HPLC for the presence of degradation. The recovery percent after filtration was also calculated. To investigate short-term in-use stability, additional 218 mg of lyophilized material was reconstituted, and the solution was stored at room temperature for 4 hours. […]

[4] = system: 1975 human lung cancer cells; test: Lung cancer tumor mice model; type: in vivo, athymic nude mice; settings: INS HCL and tumor-targeted lentiviral particles; lung cancer and pancreatic cancer models
Description: Two models of cancer were generated: lung cancer and pancreatic cancer. About 5×10^6 of 1975 human lung cancer cells per 0.1 ml PBS per mouse were injected to male 7 weeks old athymic nude mice (n=30). The cells were injected, subcutaneously at one site on the back of the mice. About 5×10^6 PANC-1 human pancreatic cancer cells per 0.1 ml PBS per mouse were injected to male 7 weeks old athymic nude mice (n=22). The cells were injected, subcutaneously at one site on the back of the mice. When tumors were palpable (˜0.3-0.5 cm^3), the mice were randomly divided into three groups (Table 27) and the viruses and/or peptides were injected, twice a week for two weeks.
The first day of the study was defined as ‘Day 1’. The animals were administrated IP with either Vehicle (PBS or Formulation), lentiviral particles and SC with test items according to Table 27 on days 1, 4, 8 and 11. Body weight and tumor volume were checked on days 3, 7, 11, 14 and 17 (the latter was measured with a caliper). At the end of the experiment, on day 17, the mice were anesthetized and then sacrificed, and the tumors were removed, as well as lung, spleen, kidney and liver.

[5] = Phase I/IIa clinical trial: safety and tolerability; type: in vivo, human; settings: HIV patients, SC twice weekly, 1% poloxamer 188 and 9% lactose formulation; preliminary results
Source text: Patients are monitored for adverse events (AE) of the INS peptide such as rash, acute allergic reaction, bronchospasm, respiratory distress, and acute vascular leak syndrome. If a severe administration related reaction occurs, the drug administration is stopped. Blood chemistry, hematology, coagulation, and urinalysis are repeated on Days 1, 4, 8, 11, 15, 18, 22, 25 at the clinic visits.
The primary safety endpoint is the frequency, severity, and duration of side effects. Number of participants with treatment-related adverse events as assessed by CTCAE v4.03, are evaluated though study completion. Main adverse events evaluation is based on DADS Toxicity criteria (Division of AIDS DADS Table for Grading the Severity of Adult and Paediatric Adverse Events, Corrected Version 2.1): • Viral load • Lymphopenia/Neutropenia • Immuno-reaction over reaction/cytokine storm • Infection surrounding the administration site • Liver function (lab tests) • Kidney function (lab tests)
Incidence of withdrawal (drop-out rate) due to side effects is evaluated throughout the study.

Sequence: WTAVQMAVFIHNFKRK [INS TFA]
- Concentration dissolved in DMSO ([1]; DMSO): ≤ 10000 µg/mL
- Behaviour upon dilution in PBS ([1]; solution in water or DMSO diluted in PBS): precipitated
- Concentration dissolved in water ([1]; water): ≤ 10000 µg/mL

Sequence: WTAVQMAVFIHNFKRK [INS acetate]
- Solubility in DMSO ([1]; DMSO): completely insoluble
- Solubility in PBS ([1]; PBS): completely insoluble
- pH above which the dissolved salt precipitated ([1]; dissolved in low pH, pH raised): above 4
- Solubility in water ([1]; water): soluble

Sequence: WTAVQMAVFIHNFKRK [INS HCl]
- solubility ([1]; DMSO): ≤ 10000 µg/mL
- Appearance in H2O ([1]; H2O): slightly opalescence
- pH in H2O ([1]; H2O, 10 mg/ml): 2.60
- Approximate Solubility ([1]; PBS): Not soluble
- Solubility in PBS ([1]; PBS): practically insoluble
- Solubility in PEG400 ([1]; PEG400): poor solubility
- solubility ([1]; PEG400): < 5000 µg/mL
- Appearance in propylene glycol ([1]; Propylene glycol (PG), 5mg/ml): clear solution
- Solubility in ethanol ([1]; ethanol): poor solubility
- solubility ([1]; ethanol): < 5000 µg/mL
- solubility ([1]; propylene glycol (PG)): 5000 to 10000 µg/mL
- Solubility in PG ([1]; propylene glycol, a clear solution was obtained): moderate solubility
- Appearance of solution in water ([1]; water): solution with opalescence
- pH of solution in water ([1]; water): 2.6
- solubility ([1]; water, pH 2.6, H2O): > 10000 µg/mL
- Stability in formulations [2]: high stability in all formulations
- Peptide adsorbed to PES filters ([3]; PES filters): about 30%
- Time stable at room temperature after reconstitution ([3]; room temperature, no significant difference in comparison to control): at least 4 hours
- Decrease in growth of tumors [4]: up to 50%
- Safety and tolerability [5]: safe and well tolerable
